What was measured:
Cytochrome P450 3A4 = Cytochrome P450 3A4 (Homo sapiens, UniProt P08684); assay: Inhibition of CYP3A4; format: ADME
Canis familiaris [1] = assay: Cardiotoxicity in anesthetized dog assessed as effect on QTc interval at 3 mg/kg, iv; format: toxicity, organism-based, Canis lupus familiaris; set-up: dose 3 mg/kg, route intravenous; settings: in vivo
[2] = AUC in dog at 60 mg/kg, po; format: ADME, organism-based, Canis lupus familiaris; set-up: dose 60 mg/kg, route oral; settings: plasma
[3] = Cmax in dog at 0.5 mg/kg, iv and 2 mg/kg, po; format: ADME, organism-based, Canis lupus familiaris; settings: in vivo
Mus musculus [4] = assay: Neurotoxicity in conscious mouse assessed as effect on CNS function at 100 mg/kg after 24 hrs; format: toxicity, organism-based, Central nervous system; set-up: dose 100 mg/kg; settings: in vivo
[5] = AUC in dog at 20 mg/kg, po; format: ADME, organism-based, Canis lupus familiaris; set-up: dose 20 mg/kg, route oral; settings: plasma
Canis familiaris [6] = assay: Cardiotoxicity in anesthetized dog assessed as effect on heart rate at 3 mg/kg, iv; format: toxicity, organism-based, Canis lupus familiaris; set-up: dose 3 mg/kg, route intravenous; settings: in vivo
[7] = Metabolic stability in human liver microsomes assessed as compound remaining after 60 mins in presence of 10 uM substrate; format: ADME, Microsome; settings: read-out: Stability
Canis familiaris [8] = assay: Cardiotoxicity in anesthetized dog assessed as effect on heart rate at 10 mg/kg, iv; format: toxicity, organism-based, Canis lupus familiaris; set-up: dose 10 mg/kg, route intravenous; settings: in vivo
[9] = Cmax in dog at 60 mg/kg, po; format: ADME, organism-based, Canis lupus familiaris; set-up: dose 60 mg/kg, route oral; settings: in vivo
[10] = molecular target: T1, Nuclear receptor subfamily 1 group I member 2 (Homo sapiens, UniProt O75469); assay: Induction of PXR
T1 sequence (O75469 whole entry): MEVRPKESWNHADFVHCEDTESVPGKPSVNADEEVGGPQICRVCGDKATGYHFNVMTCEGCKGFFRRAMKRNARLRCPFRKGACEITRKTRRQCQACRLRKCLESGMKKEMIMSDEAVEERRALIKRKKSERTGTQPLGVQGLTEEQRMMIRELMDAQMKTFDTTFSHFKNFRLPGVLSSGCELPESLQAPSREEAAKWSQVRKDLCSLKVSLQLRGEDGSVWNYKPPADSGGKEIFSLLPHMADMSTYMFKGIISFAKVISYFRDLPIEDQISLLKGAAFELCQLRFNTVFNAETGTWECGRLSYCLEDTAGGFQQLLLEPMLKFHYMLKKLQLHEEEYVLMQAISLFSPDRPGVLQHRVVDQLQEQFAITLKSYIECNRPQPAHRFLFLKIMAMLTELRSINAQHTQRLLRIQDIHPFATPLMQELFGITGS

Mus musculus [11] = assay: Neurotoxicity in conscious mouse assessed as effect on motor activity at 100 mg/kg after 5 hrs; format: toxicity, organism-based; set-up: dose 100 mg/kg; settings: in vivo
Rattus norvegicus = assay: Clearance in rat plasma at 1 mg/kg, iv and 3 mg/kg, po; format: ADME, organism-based; settings: in vivo
Mus musculus [12] = assay: Neurotoxicity in conscious mouse assessed as effect on body temperature at 100 mg/kg after 5 hrs; format: toxicity, organism-based; set-up: dose 100 mg/kg; settings: in vivo
Mus musculus [13] = assay: Neurotoxicity in conscious mouse assessed as effect on CNS function at 100 mg/kg after 5 hrs; format: toxicity, organism-based, Central nervous system; set-up: dose 100 mg/kg; settings: in vivo
Canis familiaris [14] = assay: Cardiotoxicity in anesthetized dog assessed as effect on QTc interval at 1 mg/kg, iv; format: toxicity, organism-based, Canis lupus familiaris; set-up: dose 1 mg/kg, route intravenous; settings: in vivo

Sequence of Cytochrome P450 3A4 (P08684 whole entry): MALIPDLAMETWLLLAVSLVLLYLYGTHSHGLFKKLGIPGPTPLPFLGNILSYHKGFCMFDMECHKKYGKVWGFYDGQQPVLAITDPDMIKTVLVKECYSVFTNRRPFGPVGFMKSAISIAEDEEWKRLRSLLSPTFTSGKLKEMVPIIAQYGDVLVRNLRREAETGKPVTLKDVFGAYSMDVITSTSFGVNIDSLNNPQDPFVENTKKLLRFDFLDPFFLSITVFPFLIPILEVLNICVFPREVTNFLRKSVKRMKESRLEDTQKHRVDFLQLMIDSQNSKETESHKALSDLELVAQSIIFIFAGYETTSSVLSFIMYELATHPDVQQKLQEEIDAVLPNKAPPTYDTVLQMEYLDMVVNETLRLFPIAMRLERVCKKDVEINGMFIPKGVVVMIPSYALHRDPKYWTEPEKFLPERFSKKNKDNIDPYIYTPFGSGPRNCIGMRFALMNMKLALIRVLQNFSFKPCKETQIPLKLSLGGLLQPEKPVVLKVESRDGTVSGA

IC50 (Cytochrome P450 3A4): > 100 µM
AUC [2]: 650 µM·h
Cmax [3]: 2.92 µM
AUC [5]: 372 µM·h
remaining at 1 h, 10 uM [7]: > 99%
Cmax [9]: 24.4 µM
IC50 [10]: > 25 µM
clearance (Rattus norvegicus): 5 mL/min/kg
Compound: NC(=O)c1cc(C(N)=O)n(-c2cccc(-c3cc(C(F)(F)F)ccc3C(F)(F)F)c2)n1
Activity (Canis familiaris [1]): Non-toxic
Activity (Mus musculus [4]): Non-toxic
Activity (Canis familiaris [6]): Non-toxic
Activity (Canis familiaris [8]): Non-toxic
Activity (Mus musculus [11]): Non-toxic
Activity (Mus musculus [12]): Non-toxic
Activity (Mus musculus [13]): Non-toxic
Activity (Canis familiaris [14]): Non-toxic
